Biological target: T1, RORγt (Homo sapiens, UniProt P51449)
T1 construct: gene RORC; LBD, amino acids 264–518, His6-tagged
T1 sequence (P51449 264-518): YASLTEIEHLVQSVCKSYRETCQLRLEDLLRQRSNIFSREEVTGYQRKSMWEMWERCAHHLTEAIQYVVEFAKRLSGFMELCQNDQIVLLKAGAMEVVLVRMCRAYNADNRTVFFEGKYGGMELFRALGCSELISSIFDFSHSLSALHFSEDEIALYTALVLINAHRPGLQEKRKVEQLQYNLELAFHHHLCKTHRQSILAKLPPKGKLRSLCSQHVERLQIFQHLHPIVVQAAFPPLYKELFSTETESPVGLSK
Assay: TR-FRET displacement of RIP140 co-activator peptide from purified RORγt-LBD; supported by DSLS thermal shift (ΔTagg […] °C)
Assay type: binding

## Cc1ncc(C(=O)Nc2cn3ccnc3c(CN3CCN(C(=O)C4CCCC4)[C@@H](C)C3)c2C)cn1 [compound 1, (S)-N-(8-((4-(cyclopentanecarbonyl)-3-methylpiperazin-1-yl)methyl)-7-methylimidazo[1,2-a]pyridin-6-yl)-2-methylpyrimidine-5-carboxamide]
  IC50: 19 nM
